Target: PIK3CA (human) (UniProt P42336)
Test: Assessment of PIK3CA Kinase Activity

Sequence of PIK3CA (human) (P42336 whole entry, looked up): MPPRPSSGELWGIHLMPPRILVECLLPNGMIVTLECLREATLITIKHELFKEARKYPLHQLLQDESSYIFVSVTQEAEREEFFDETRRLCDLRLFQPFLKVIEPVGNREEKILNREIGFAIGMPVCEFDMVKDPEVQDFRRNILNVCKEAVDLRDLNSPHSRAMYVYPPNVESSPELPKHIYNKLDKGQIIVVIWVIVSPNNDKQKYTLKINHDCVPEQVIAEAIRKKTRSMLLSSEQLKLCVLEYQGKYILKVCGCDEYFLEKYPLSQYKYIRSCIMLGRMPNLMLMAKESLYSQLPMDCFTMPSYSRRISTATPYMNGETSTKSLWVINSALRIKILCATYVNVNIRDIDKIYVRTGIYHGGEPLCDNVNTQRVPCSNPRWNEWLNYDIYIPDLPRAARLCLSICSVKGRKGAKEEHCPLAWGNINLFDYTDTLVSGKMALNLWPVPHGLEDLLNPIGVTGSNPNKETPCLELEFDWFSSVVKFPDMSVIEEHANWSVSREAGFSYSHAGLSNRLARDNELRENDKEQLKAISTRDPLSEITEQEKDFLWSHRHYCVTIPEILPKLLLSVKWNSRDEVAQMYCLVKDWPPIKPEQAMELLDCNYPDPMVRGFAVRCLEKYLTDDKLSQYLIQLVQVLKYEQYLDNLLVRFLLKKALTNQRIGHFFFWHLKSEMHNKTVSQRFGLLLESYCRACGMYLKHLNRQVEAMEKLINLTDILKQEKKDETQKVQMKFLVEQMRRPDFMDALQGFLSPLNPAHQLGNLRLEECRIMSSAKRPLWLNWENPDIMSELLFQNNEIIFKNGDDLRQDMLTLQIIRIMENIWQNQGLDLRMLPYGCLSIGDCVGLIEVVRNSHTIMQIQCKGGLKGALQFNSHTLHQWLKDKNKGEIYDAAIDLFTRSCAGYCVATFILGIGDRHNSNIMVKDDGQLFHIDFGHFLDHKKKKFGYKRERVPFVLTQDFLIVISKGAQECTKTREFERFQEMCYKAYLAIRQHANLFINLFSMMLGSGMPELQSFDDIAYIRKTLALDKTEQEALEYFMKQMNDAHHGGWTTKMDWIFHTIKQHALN

SMILES	IC50
C[C@@H]1COCCN1c1cc(N2CCOC[C@H]2C)nc(-c2ccc(NC(=O)Nc3ccncc3)cc2)n1	572 nM
CNC(=O)Nc1ccc(-c2cc(N3CCOCC3)c3cnn(C4CCN(Cc5ccccc5)CC4)c3n2)cc1	592 nM
O=C(Nc1ccc(-c2cc3nccn3c(N3CCOCC3)n2)cc1)NC1CC1	5080 nM
Cc1ccc2c(N3CCOCC3)nc(-c3ccc(NC(=O)Nc4ccncc4)cc3)nc2c1	35 nM
O=C(Nc1ccc(-c2nccc(N3CCOCC3)n2)cc1)NC1CC1	2750 nM
O=C(Nc1ccc(-c2nccc(N3CCOCC3)n2)cc1)OCCO	2550 nM
O=CNc1c(O)nc(-c2ccc(NC(=O)Nc3ccc(C(=O)NCCN4CCCCC4)cc3)cc2)nc1N1CCOCC1	202 nM
CC(C)N1CCN(C(=O)c2ccc(NC(=O)Nc3ccc(-c4nc(N5CCOC[C@H]5C)cc(N5CCOC[C@H]5C)n4)cc3)cc2)CC1	113 nM
C[C@@H]1COCCN1c1cc(C2CCOCC2)nc(-c2ccc(NC(=O)Nc3ccc(C(=O)N4CCN(C)CC4)cc3)cc2)n1	80.5 nM
O=C(Nc1ccc(-c2nc(N3CCOCC3)c3sccc3n2)cc1)Nc1cccnc1	11 nM
CN(C)CCN(C)C(=O)c1ccc(NC(=O)Nc2ccc(-c3nc(O)c(N)c(N4CCOCC4)n3)cc2)cc1	31 nM
COC(=O)Nc1ccc(-c2nc(N3CCOCC3)c3sccc3n2)cc1	1600 nM
CNC(=O)Nc1ccc(-c2nccc(N3CCOCC3)n2)cc1	384 nM
C[C@@H]1COCCN1c1cc(C2CCOCC2)nc(-c2ccc(NC(=O)Nc3ccc(N4CCN(C)CC4)nc3)cc2)n1	694 nM
C[C@@H]1COCCN1c1cc(C2CCOCC2)nc(-c2ccc(NC(=O)Nc3ccc(N4CCN(C)CC4)cc3)cc2)n1	420 nM
O=C(Nc1ccncc1)Nc1ccc(-c2nc(N3CCOCC3)c3sccc3n2)cc1	9 nM
C[C@@H]1COCCN1c1cc(C2CCOCC2)nc(-c2ccc(NC(=O)Nc3cccnc3)cc2)n1	684 nM
CNC(=O)Nc1ccc(-c2nc(N3CCOCC3)c3sccc3n2)cc1	93 nM
O=C(Nc1ccc(-c2nc(N3CCOCC3)c3sccc3n2)cc1)NC1CC1	636 nM
O=C(Nc1ccc(-c2ccnc(N3CCOCC3)n2)cc1)OCCO	2860 nM
C[C@@H]1COCCN1c1cc(N2CCOC[C@H]2C)nc(-c2ccc(NC(=O)Nc3cccnc3)cc2)n1	983 nM
C[C@@H]1COCCN1c1cc(N2CCOC[C@H]2C)nc(-c2ccc(NC(=O)Nc3ccc(N4CCN(C)CC4)cc3)cc2)n1	565 nM
O=C(NCCF)Nc1ccc(-c2nc(N3CCOCC3)c3sccc3n2)cc1	364 nM
O=C(Nc1ccncc1)Nc1ccc(-c2nc(N3CCOCC3)cc(N3CCOCC3)n2)cc1	21 nM
O=C(Nc1ccc(-c2nccc(N3CCOCC3)n2)cc1)Nc1ccc(N2CCOCC2)cc1	35 nM

SMILES	IC50
CN1CCN(c2ccc(NC(=O)Nc3ccc(-c4nccc(N5CCOCC5)n4)cc3)cc2)CC1	19 nM
CCNC(=O)Nc1ccc(-c2nccc(N3CCOCC3)n2)cc1	415 nM
O=C(Nc1ccncc1)Nc1ccc(-c2nccc(N3CCOCC3)n2)cc1	15 nM
C=CCc1cnc(-c2ccc(NC(=O)Nc3cccnc3)cc2)nc1N1CCOCC1	35 nM
O=C(Nc1ccccc1)Nc1ccc(-c2nc(N3CCOCC3)c3sccc3n2)cc1	7 nM
O=C(Nc1ccncc1)Nc1ccc(-c2cc(N3CCOCC3)nc(N3CCOCC3)n2)cc1	16 nM
O=C(Nc1ccc(-c2cc(N3CCOCC3)nc(-c3ccccc3)n2)cc1)NC1CC1	3070 nM
O=C(NCCO)Nc1ccc(-c2nc(N3CCOCC3)c3sccc3n2)cc1	141 nM
CN1CCN(c2ccc(NC(=O)Nc3ccc(-c4ccnc(N5CCOCC5)n4)cc3)cn2)CC1	79 nM
O=C(Nc1ccc(-c2ncc(-c3ccccc3)c(N3CCOCC3)n2)cc1)Nc1cccnc1	53 nM
C[C@@H]1COCCN1c1cc(N2CCOC[C@H]2C)nc(-c2ccc(NC(=O)Nc3ccc(C(=O)N4CCN(C)CC4)cc3)cc2)n1	77.5 nM
CNC(=O)Nc1ccc(-c2ccnc(N3CCOCC3)n2)cc1	394 nM
CN(C)CCN(C)C(=O)c1ccc(NC(=O)Nc2ccc(-c3nc(O)c(NC=O)c(N4CCOCC4)n3)cc2)cc1	76 nM
CN(C)CCOc1ccc(NC(=O)Nc2ccc(-c3nccc(N4CCOCC4)n3)cc2)cc1	22 nM
CCNC(=O)Nc1ccc(-c2nc(N3CCOCC3)c3sccc3n2)cc1	312 nM
O=C(Nc1ccncc1)Nc1ccc(-c2cc3nccn3c(N3CCOCC3)n2)cc1	654 nM
O=C(Nc1ccc(-c2ccnc(N3CCOCC3)n2)cc1)Nc1cccnc1	42 nM
O=C(Nc1ccncc1)Nc1ccc(-c2ncc(Cl)c(N3CCOCC3)n2)cc1	42 nM
O=C(Nc1ccc(-c2nccc(N3CCOCC3)n2)cc1)Nc1ccc(N2CCOCC2)nc1	112 nM
CNC(=O)Nc1ccc(-c2cc3nccn3c(N3CCOCC3)n2)cc1	2970 nM
CN1CCN(c2ccc(NC(=O)Nc3ccc(-c4cc(N5CCOCC5)nc(-c5ccccc5)n4)cc3)cc2)CC1	7770 nM
C[C@@H]1COCCN1c1cc(C2CCOCC2)nc(-c2ccc(NC(=O)Nc3ccncc3)cc2)n1	383 nM
CC(C)N1CCN(C(=O)c2ccc(NC(=O)Nc3ccc(-c4nc(C5CCOCC5)cc(N5CCOC[C@H]5C)n4)cc3)cc2)CC1	146 nM
CN1CCN(c2ccc(NC(=O)Nc3ccc(-c4nccc(N5CCOCC5)n4)cc3)cn2)CC1	46 nM
O=C(Nc1ccc(-c2ncc([N+](=O)[O-])c(N3CCOCC3)n2)cc1)Nc1cccnc1	155 nM

Source: the Kinase Knowledgebase extract (Sharma et al. 2016)
